Measured values from PMC9304322, “Targeting retinoic acid receptor alpha-corepressor interaction activates chaperone-mediated autophagy and protects against retinal degeneration” (Nature Communications, 2022).
Where “and” joins values, the source holds several entries; their conditions need not be identical. Identical values can stand only once. Like-named read-outs stand apart in the source and are kept apart here.

Assay: Pharmacokinetic analysis, plasma and brain;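 on Fig. 3a level, MEAN: plasma concentration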;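 on Fig. 3a level, single animals 1-3: plasma concentration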;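 on Fig. 3b level, MEAN: brain concentration in ng/g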;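 on Fig. 3b level, single animals 1-3: brain concentration in ng/g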
Assay type: in vivo, ICR (CD-1) male mice
Design: Fig. 3a level, single animals 1-3 / Fig. 3a level, MEAN / Fig. 3b level, single animals 1-3 / Fig. 3b level, MEAN: unit not given here
Conditions: for Kp at 0.083 h / Kp at 0.25 h / Kp at 0.5 h / Kp at 1 h / Kp at 2 h / Kp at 4 h / Kp at 8 h / half-life: male, ICR (CD-1), mouse; for half-life: mice
Method: ICR (CD-1) male mice were fasted at least three hours and water was available ad libitum before the study. Animals were housed in a controlled environment, target conditions: temperature 18 to 29 °C, relative humidity 30 to 70%. Temperature and relative humidity was monitored daily. An electronic time-controlled lighting system was used to provide a 12 h light/12 h dark cycle. 3 mice for each indicated time point were administered 30 mg/Kg CA39 or CA77 by oral gavage or 1 mg/Kg CA39 or CA77 by intravenous injection using 30% PEG-400, 65% D5W (5% dextrose in water), 5% Tween-80 vehicle. Mice were sacrificed, and brain samples were harvested at […], 0.25 h, 0.5 h, 1 h, 2 h, 4 h, 8 h, 24 h, and analyzed for CA39 or CA77 levels using LC-MS/MS. Pharmacokinetics parameters were calculated using Phoenix WinNonlin 6.3. Experiments performed at SIMM-SERVIER joint Biopharmacy Laboratory.

With `CC(=O)Nc1ccc(C2=Nc3ccc(Cl)cc3OC2)cc1` [CA77] the “Fig. 3a level, MEAN” value (IV, Time 0.25 h) was 30.2, the “Fig. 3a level, single animals 1-3” value (IV, Time 0.25 h) was 27.2 and 43.9 and 19.5 and the “Fig. 3b level, MEAN” value (IV, Time 0.25 h) was 3653.67. The “Fig. 3b level, single animals 1-3” value (IV, Time 0.25 h) was 3391 and 5173 and 2397, the “Fig. 3a level, MEAN” value (IV, Time 0.5 h) was 17.9 and the “Fig. 3a level, single animals 1-3” value (IV, Time 0.5 h) was 17.2 and 14.6 and 21.9. The “Fig. 3b level, MEAN” value (IV, Time 0.5 h) was 2647.67, the “Fig. 3b level, single animals 1-3” value (IV, Time 0.5 h) was 2198 and 2795 and 2950 and the “Fig. 3a level, MEAN” value (IV, Time 1 h) was 17.4333. The “Fig. 3a level, single animals 1-3” value (IV, Time 1 h) was 15.5 and 21.5 and 15.3, the “Fig. 3b level, MEAN” value (IV, Time 1 h) was 2521.11 and the “Fig. 3b level, single animals 1-3” value (IV, Time 1 h) was 2758.39 and 2650.88 and 2154.07. For the same compound, the “Fig. 3a level, MEAN” value (IV, Time 2 h) was 4.363, the “Fig. 3a level, single animals 1-3” value (IV, Time 2 h) was 7.54 and 1.71 and 3.84 and the “Fig. 3b level, MEAN” value (IV, Time 2 h) was 658.667. The “Fig. 3b level, single animals 1-3” value (IV, Time 2 h) was 773 and 411 and 792, the “Fig. 3a level, MEAN” value (IV, Time 4 h) was 0.3767 and the “Fig. 3a level, single animals 1-3” value (IV, Time 4 h) was “BLQ and 0.597 and 0.533”. For the same compound, the “Fig. 3b level, MEAN” value (IV, Time 4 h) was 104, the “Fig. 3b level, single animals 1-3” value (IV, Time 4 h) was 76 and 112 and 124 and the “Fig. 3a level, MEAN” value (IV, Time 8 h) was 0. The “Fig. 3a level, single animals 1-3” value (IV, Time 8 h) was “BLQ”, the “Fig. 3b level, MEAN” value (IV, Time 8 h) was 25.5467 and the “Fig. 3b level, single animals 1-3” value (IV, Time 8 h) was 7.74 and 27.5 and 41.4. For the same compound, the “Fig. 3a level, MEAN” value (IV, Time 24 h) was 0, the “Fig. 3a level, single animals 1-3” value (IV, Time 24 h) was “BLQ” and the “Fig. 3b level, MEAN” value (IV, Time 24 h) was 3. The “Fig. 3b level, single animals 1-3” value (IV, Time 24 h) was 2.68 and 4.25 and 2.07, the “B/P, Brian/Plasma” value (P.O., Time 0.25 h, individual animals) was 60.8033 and 75.265 and the “B/P, Brian/Plasma” value (P.O., Time 0.5 h, individual animals) was 154.065 and 93.9339. For the same compound, the “B/P, Brian/Plasma” value (P.O., Time 1 h, individual animals) was 105.807 and 124.313, the “B/P, Brian/Plasma” value (P.O., Time 2 h, individual animals) was 113.451 and 103.8 and the “B/P, Brian/Plasma” value (P.O., Time 4 h, individual animals) was 108.623 and 135.516. The “B/P, Brian/Plasma” value (P.O., Time 8 h, individual animals) was 133.365 and 145.604, the “Fig. 3b level, MEAN” value (PO, Time 0.25 h) was 9743 and the “Fig. 3b level, single animals 1-3” value (PO, Time 0.25 h) was 7893 and 7279 and 14057. The “Fig. 3b level, MEAN” value (PO, Time 0.5 h) was 16210.7, the “Fig. 3b level, single animals 1-3” value (PO, Time 0.5 h) was 13095 and 20145 and 15392 and the “Fig. 3b level, MEAN” value (PO, Time 1 h) was 30964. For the same compound, the “Fig. 3b level, single animals 1-3” value (PO, Time 1 h) was 31243 and 27952 and 33697, the “Fig. 3a level, MEAN” value (PO, Time 2 h) was 278 and the “Fig. 3a level, single animals 1-3” value (PO, Time 2 h) was 318 and 259 and 257. For the same compound, the “Fig. 3b level, MEAN” value (PO, Time 2 h) was 29203.3, the “Fig. 3b level, single animals 1-3” value (PO, Time 2 h) was 31592 and 29359 and 26659 and the “Fig. 3a level, MEAN” value (PO, Time 4 h) was 203.667. For the same compound, the “Fig. 3a level, single animals 1-3” value (PO, Time 4 h) was 163 and 258 and 190, the “Fig. 3b level, MEAN” value (PO, Time 4 h) was 24280.3 and the “Fig. 3b level, single animals 1-3” value (PO, Time 4 h) was 19042 and 28003 and 25796. The “Fig. 3a level, MEAN” value (PO, Time 8 h) was 44.4333, the “Fig. 3a level, single animals 1-3” value (PO, Time 8 h) was 55.2 and 45.3 and 32.8 and the “Fig. 3b level, MEAN” value (PO, Time 8 h) was 5756. The “Fig. 3b level, single animals 1-3” value (PO, Time 8 h) was 6451 and 6039 and 4778, the “Fig. 3a level, MEAN” value (PO, Time 24 h) was 0 and the “Fig. 3a level, single animals 1-3” value (PO, Time 24 h) was 0. The “Fig. 3b level, MEAN” value (PO, Time 24 h) was 10.0733, the “Fig. 3b level, single animals 1-3” value (PO, Time 24 h) was 18.9 and 6.07 and 5.25 and the “B/P, Brian/Plasma” value (i.v., Time 0.083 h, individual animals) was 71.1336 and 48.9012. For the same compound, the “B/P, Brian/Plasma” value (i.v., Time 0.25 h, individual animals) was 117.877 and 123.138, the “B/P, Brian/Plasma” value (i.v., Time 0.5 h, individual animals) was 191.891 and 134.551 and the “B/P, Brian/Plasma” value (i.v., Time 1 h, individual animals) was 123.104 and 140.908. For the same compound, the “B/P, Brian/Plasma” value (i.v., Time 2 h, individual animals) was 102.433 and 239.982 and 206.167, the “B/P, Brian/Plasma” value (i.v., Time 4 h, individual animals) was 232.498 and the Kp at 0.083 h (brain, iv, 1 mg/Kg, i.v., Time 0.083 h, individual animals, read-out: B/P, Brian/Plasma) was 71.3. It also gave a Kp at 0.083 h (brain, iv, 1 mg/Kg, i.v., Time 0.083 h, mean, read-out: B/P, Brian/Plasma, Mean) of 71.2, a Kp at 0.25 h (brain, iv, 1 mg/Kg, i.v., Time 0.25 h, individual animals, read-out: B/P, Brian/Plasma) of 125 and a Kp at 0.25 h (brain, iv, 1 mg/Kg, i.v., Time 0.25 h, mean, read-out: B/P, Brian/Plasma, Mean) of 122. The Kp at 0.5 h (brain, iv, 1 mg/Kg, i.v., Time 0.5 h, individual animals, read-out: B/P, Brian/Plasma) was 128, the Kp at 0.5 h (brain, iv, 1 mg/Kg, i.v., Time 0.5 h, mean, read-out: B/P, Brian/Plasma, Mean) was 151 and the Kp at 1 h (brain, iv, 1 mg/Kg, i.v., Time 1 h, individual animals, read-out: B/P, Brian/Plasma) was 178. For the same compound, the Kp at 1 h (brain, iv, 1 mg/Kg, i.v., Time 1 h, mean, read-out: B/P, Brian/Plasma, Mean) was 159, the Kp at 2 h (brain, iv, 1 mg/Kg, i.v., Time 2 h, mean, read-out: B/P, Brian/Plasma, Mean) was 183 and the Kp at 4 h (brain, iv, 1 mg/Kg, i.v., Time 4 h, individual animals, read-out: B/P, Brian/Plasma) was 188. It also gave a Kp at 4 h (brain, iv, 1 mg/Kg, i.v., Time 4 h, mean, read-out: B/P, Brian/Plasma, Mean) of 210, a Kp at 0.25 h (brain, po, 30 mg/Kg, P.O., Time 0.25 h, individual animals, read-out: B/P, Brian/Plasma) of 64.5 and a Kp at 0.25 h (brain, po, 30 mg/Kg, P.O., Time 0.25 h, mean, read-out: B/P, Brian/Plasma, Mean) of 66.9. For the same compound, the Kp at 0.5 h (brain, po, 30 mg/Kg, P.O., Time 0.5 h, individual animals, read-out: B/P, Brian/Plasma) was 122, the Kp at 0.5 h (brain, po, 30 mg/Kg, P.O., Time 0.5 h, mean, read-out: B/P, Brian/Plasma, Mean) was 123 and the Kp at 1 h (brain, po, 30 mg/Kg, P.O., Time 1 h, individual animals, read-out: B/P, Brian/Plasma) was 125. The Kp at 1 h (brain, po, 30 mg/Kg, P.O., Time 1 h, mean, read-out: B/P, Brian/Plasma, Mean) was 118, the Kp at 2 h (brain, po, 30 mg/Kg, P.O., Time 2 h, individual animals, read-out: B/P, Brian/Plasma) was 99.4 and the Kp at 2 h (brain, po, 30 mg/Kg, P.O., Time 2 h, mean, read-out: B/P, Brian/Plasma, Mean) was 106. The Kp at 4 h (brain, po, 30 mg/Kg, P.O., Time 4 h, individual animals, read-out: B/P, Brian/Plasma) was 117, the Kp at 4 h (brain, po, 30 mg/Kg, P.O., Time 4 h, mean, read-out: B/P, Brian/Plasma, Mean) was 120 and the Kp at 8 h (brain, po, 30 mg/Kg, P.O., Time 8 h, individual animals, read-out: B/P, Brian/Plasma) was 117. It also gave a Kp at 8 h (brain, po, 30 mg/Kg, P.O., Time 8 h, mean, read-out: B/P, Brian/Plasma, Mean) of 132, a half-life (brain, IV 1 mg/kg, read-out: Half-life in brain (converted)) of 1.8 h and a half-life (brain, PO 30 mg/kg, read-out: Half-life in brain (converted)) of 4.2 h. It also gave a half-life (plasma, IV 1 mg/kg, read-out: Half-life in plasma (converted)) of 0.6 h and a half-life (plasma, PO 30 mg/kg, read-out: Half-life in plasma (converted)) of 2.2 h.
